Source: ChEMBL document CHEMBL3399952, “Design and synthesis of novel anti-tuberculosis agents from the celecoxib pharmacophore” (Bioorg Med Chem, 2015)
pIC50: −log10 of the molar value. Calls of active or inactive are those of the source. The rule behind the calls is not given here.

Columns and labels:
[1] = tested on: Mycobacterium tuberculosis; experiment: Antimycobacterial activity against Mycobacterium tuberculosis H37Rv expressing Lux infected in human macrophages assessed as reduction in growth measured at 5 to 20 uM after 3 weeks by bioluminescence assay; type: functional, organism-based
[2] = Cytotoxicity against human macrophages assessed as cell death at 20 uM by TMRE-based assay; parameters: species or system Macrophage; details: read-out: INH
[3] = tested on: Mycobacterium tuberculosis; experiment: Antimycobacterial activity against Mycobacterium tuberculosis H37Rv expressing Lux assessed as reduction in growth measured after 3 weeks by bioluminescence assay; type: functional, organism-based; details: 504 h
[4] = tested on: Mycobacterium tuberculosis; experiment: Antimycobacterial activity against Mycobacterium tuberculosis H37Rv expressing Lux assessed as reduction in growth measured at 5 uM after 3 weeks by bioluminescence assay; type: functional, organism-based
[5] = Cytotoxicity against human macrophages assessed as cell death at > 10 uM by TMRE-based assay; details: macrophage
[6] = tested on: Mycobacterium tuberculosis; experiment: Antimycobacterial activity against Mycobacterium tuberculosis H37Rv expressing Lux infected in human macrophages assessed as reduction in growth measured at <= 2.5 uM after 72 hrs by bioluminescence assay; type: functional, organism-based
[7] = tested on: Mycobacterium tuberculosis; experiment: Antimycobacterial activity against Mycobacterium tuberculosis H37Rv assessed as reduction in growth measured at <= 2.5 uM after 72 hrs by CFU assay; type: functional
[8] = Cytotoxicity against human macrophages assessed as cell death at 1.25 to 40 uM after 48 hrs by TMRE-based assay; details: macrophage
[9] = tested on: Mycobacterium tuberculosis; experiment: Antimycobacterial activity against Mycobacterium tuberculosis H37Rv expressing Lux infected in human macrophages assessed as […] reduction in growth measured at 5 uM after 48 hrs by bioluminescence assay; type: functional, organism-based
[10] = tested on: Mycobacterium tuberculosis; experiment: Antimycobacterial activity against Mycobacterium tuberculosis H37Rv assessed as reduction in growth measured after 48 hrs by CFU assay; type: functional

Q: Which results are given for `CNC(=O)CCc1cc(-c2ccc(-c3ccc(C(F)(F)F)cc3)cc2)n(-c2ccc(NS(=O)(=O)N(C)C)cc2)n1`?
A: inhibition [1]: Active; cytotoxicity at 20 µM [2]: 4%; pIC50 [3]: 5.66; inhibition [4]: Active

Q: With `CNC(=O)CCc1cc(-c2ccc(-c3ccc(C(F)(F)F)cc3)cc2)n(-c2ccc(NC(=O)c3ccc(N)cc3)cc2)n1` as the molecule, how does the pIC50 [3] read?
A: 6.49

Q: And the Activity [5]?
A: Toxic

Q: What about the inhibition [6] of the same molecule?
A: Active

Q: And the “fold change (FC)” value [7]?
A: >1

Q: With `CCc1nc2ccc(Cl)cn2c1C(=O)NCc1ccc(N2CCC(c3ccc(OC(F)(F)F)cc3)CC2)cc1` [TELACEBEC] as the molecule, how does the pIC50 [3] read?
A: > 8.52

Q: With `CNC(=O)CCc1cc(-c2ccc(-c3ccc(C(F)(F)F)cc3)cc2)n(-c2ccc(NC(=O)c3cn(C)cn3)cc2)n1` as the molecule, how does the pIC50 [3] read?
A: 6.74

Q: What about the inhibition [6] of the same molecule?
A: Active

Q: What about the “fold change (FC)” value [7] of the same molecule?
A: >1

Q: And the Activity [8]?
A: Non-toxic

Q: With `COc1nc2ccc(Br)cc2cc1[C@@H](c1ccccc1)[C@@](O)(CCN(C)C)c1cccc2ccccc12` [BEDAQUILINE] as the molecule, how does the pIC50 [3] read?
A: 7.30

Q: Which results are given for `CNC(=O)CCc1cc(-c2ccc(-c3ccc(C(F)(F)F)cc3)cc2)n(-c2ccc(NC(=O)c3ccnc(C)c3)cc2)n1`?
A: pIC50 [3]: 6.54; inhibition [6]: Active; fold change (FC) [7]: >1; Activity [8]: Non-toxic; inhibition [9]: Active

Q: With `O=[N+]([O-])c1cn2c(n1)OC[C@@H](OCc1ccc(OC(F)(F)F)cc1)C2` [PRETOMANID] as the molecule, how does the pIC50 [3] read?
A: 6.40

Q: With `CNC(=O)CCc1cc(-c2ccc(-c3ccc(C(F)(F)F)cc3)cc2)n(-c2ccc(NC(=O)c3ccncc3)cc2)n1` as the molecule, how does the pIC50 [3] read?
A: 6.32

Q: And the inhibition [6]?
A: Active

Q: And the “fold change (FC)” value [7]?
A: >1

Q: What about the Activity [8] of the same molecule?
A: Non-toxic

Q: What about the inhibition [9] of the same molecule?
A: Active

Q: With `CNC(=O)CCc1cc(-c2ccc(-c3ccc(C(F)(F)F)cc3)cc2)n(-c2ccc(NC(=O)c3ccncc3Cl)cc2)n1` as the molecule, how does the pIC50 [3] read?
A: 6.37

Q: And the inhibition [6]?
A: Active

Q: And the “fold change (FC)” value [7]?
A: >1

Q: What about the Activity [8] of the same molecule?
A: Non-toxic

Q: With `NS(=O)(=O)Nc1ccc(-n2nc(C(F)(F)F)cc2-c2ccc3c(ccc4ccccc43)c2)cc1` as the molecule, how does the “fold change (FC)” value [10] read?
A: 1

Q: With `CNC(=O)CCc1cc(-c2ccc(-c3ccc(C(F)(F)F)cc3)cc2)nn1-c1ccc(NC(=O)c2ccncc2)cc1` as the molecule, how does the pIC50 [3] read?
A: 6.57

Q: And the inhibition [6]?
A: Active

Q: What about the “fold change (FC)” value [7] of the same molecule?
A: >1

Q: And the Activity [8]?
A: Non-toxic

Q: And the inhibition [9]?
A: Active

Q: Which results are given for `CNC(=O)CCc1cc(-c2ccc(-c3ccc(C(F)(F)F)cc3)cc2)n(-c2ccc(NS(=O)(=O)NC(=O)OC(C)(C)C)cc2)n1`?
A: inhibition [1]: Active; cytotoxicity at 20 µM [2]: 26%; inhibition [4]: Active

Q: With `NNC(=O)c1ccncc1` [ISONIAZID] as the molecule, how does the pIC50 [3] read?
A: 6.48

Q: What about the inhibition [4] of the same molecule?
A: Active
